Structures are written as SMILES.

The inhibition is how much of the control response was suppressed.

Test [1] concerns IL-1 induced phosphorylation of ERK. Put plainly: IL-1 induced phosphorylation (activation) of ERK, Western blotting. In kind it is cell-based, human. Conditions: compound 5 50 μM alone; S112 cells, IL-1 0.1 ng/ml, 30 minutes. The procedure: S112 human dermal fibroblasts cultured in RPMI (serum-free) medium were stimulated with recombinant human IL-1 0.1 ng/ml, as described herein, for 30 minutes, with or without the addition of dexamethasone 10^−9M or benzimidazol-2-one-5-pentanoate (compound 5) (50 μM). The phosphorylation (activation) of ERK was assessed using Western blotting with a mAb specific for the phosphorylated (activated) form of ERK. In brief, cells were disrupted by repeated aspiration through a 21-gauge needle. After incubation on ice for 10 min and microcentrifugation at 3000 rpm for 15 min (4° C.), the supernatants were removed, the protein concentration was determined, and the lysates were stored at −80° C. Equal amounts of cellular proteins were fractionated on 10% SDS-polyacrylamide electrophoresis gels and transferred to polyvinylidene difluoride membranes. Immunoblotting was performed using antibodies directed against phospho-p44/42 (ERK) and total p44142 according to the manufacturer's instructions. The intensity of ERK activation is proportional to the size and optical density (darkness) of the resulting blots. Total ERK blots serve as a loading control, such that changes in phosphorylated ERK represent changes in phosphorylation and not in total ERK protein.
In general terms: A western blot detects proteins with antibodies after separation by electrophoresis.

In test [2] the test system is lymph node and splenic T cells. The experiment in a line: ex vivo antigen-specific T cell activation after in vivo treatment. Further details: species or system mice. The text has this:
In vivo administration of such a compound might be expected to exert effects on T cell responsiveness even after the T cells have been removed from exposure to the compound, that is, if T cells were studied ex vivo after in vivo treatment with the MIF antagonist compound. To measure ex vivo antigen-specific T cell activation, draining lymph nodes from arthritic limbs or spleens were removed from mice with murine antigen induced arthritis, induced as above with mBSA, at day 28 after first immunisation and a single cell suspension prepared in DMEM containing 5% FCS and 0.05% 2-mercaptoethanol. 1×10^5 cells/200 μl were cultured in triplicate in the presence or absence of mBSA (0.1, 1.0, 10 μg/ml) in 96-well plates for 48 hours (37° C., 5% CO2.) The T cell proliferation response was determined by measuring ^3H-thymidine incorporation during the final 18 hr. The cells were harvested and radioactivity incorporation into the DNA was measured with a Wallac 1409 liquid scintillation counter. The means of each triplicate culture were calculated. Each experiment comprised at least three individual animals and the results presented represent the mean±SEM of groups of animals in each experiment. The percentage inhibition of T cell proliferation was calculated using the result of the […] incorporation of cells from compound-treated animals subtracted from the ^3H-thymidine incorporation of cells from vehicle-treated animals.

In test [3] the test system is murine endotoxic shock model. The experiment in a line: murine endotoxic shock model (LPS), cytokines by ELISA. In kind it is in vivo, mice. For orientation: In an ELISA, binding on a coated surface is turned into a signal by an enzyme label.
The subject of test [4] is cutaneous delayed-type hypersensitivity reactions. The experiment in a line: cutaneous delayed-type hypersensitivity (DTH) to mBSA. In kind it is in vivo, mice. Conditions: 15 mg/kg IP once per 24 hours; vs vehicle, p<0.05. As for the experimental part: As noted above, cutaneous delayed-type hypersensitivity reactions (DTH) are an in vivo test of T cell activation. […] A compound which inhibits the cytokine of biological activity of MIF may be expected to inhibit the development of DTH reactions in vivo. DTH reactions were induced in mice developing antigen-induced arthritis (see below). C57BL6/J male mice, aged 7-10 weeks old, were immunized on day 0 with 200 μg methylated BSA (mBSA) emulsified in 200 μl of Freund's complete adjuvant (FCA) injected subcutaneously into the flank skin. Mice were treated with compound 5, administered by intraperitoneal injection, once per 24 hours at a dose of 15 mg/kg body weight. After seven days, mice received 100 μg mBSA and 100 μl FCA by intradermal injection at the base of the tail. After a further 14 days, arthritis was induced by intra-articular injection of 30 μg mBSA in 10 μl of sterile saline into the left knee, the right knee being injected with sterile saline alone. DTH reactions were induced as follows: these mice were challenged 24 h before the end of the experiment by intradermal injection of 50 μg mBSA in 20 μl saline into one hind footpad. […] Footpad swelling was quantified 24 h later using a micrometer. DTH was recorded as the difference in skin swelling between mBSA and saline-injected footpads, and expressed as change in footpad thickness (Δmm).

Test [5] concerns IL-1-induced COX-2 expression. Put plainly: IL-1-induced COX-2 expression in S112 human dermal fibroblasts (MIF-dependent bioassay). In kind it is cell-based. As for the experimental part: The activity of compounds was studied in a bioassay utilising MIF-dependent activation of human dermal fibroblasts. […] IL-1-induced COX-2 expression is therefore a MIF-dependent event. […] Prior to experimentation, cells were seeded at 10^5 cells/ml in RPMI/0.1% BSA for 18 hours. […] After 6 hours, cells were collected and intracellular COX-2 protein determined by permeabilisation flow cytometry. […] Cellular fluorescence was determined using a flow cytometer. At least 5000 events were counted for each reading, each of which was performed in duplicate, and the results expressed in mean fluorescence intensity (MFI) after subtraction of negative control-labelled cell fluorescence. The effect of each compound was determined by subtracting the IL-1+compound-treated cell MFI from the IL-1-treated cell (control) MFI and expressed as % inhibition. In each case the % inhibition of IL-1-induced COX-2 expression is expressed as the mean, or mean±SEM where results are available from multiple experiments.

Turning to `CCCCCOC(=O)c1ccc2[nH]c(=O)[nH]c2c1` [Compound 5], in test [1], the “ERK activation by IL-1” value is “not inhibited”. For the same compound, the “ex vivo activation of lymph node T cells in response to mBSA” value in test [2] (FIG. 11a, vs vehicle) is given as “reduced proliferative responses”. For the same compound, the “ex vivo splenic T cell proliferation in response to mBSA” value in test [2] (FIG. 11b, table 7, vs vehicle) is on record as “inhibitory effect”. For the same compound, the “% inhibition of ex vivo splenic T cell activation” value in test [2] ([mBSA] 1 μg/mL) was 33%; in test [2] ([mBSA] 10 μg/mL) it was 30%. In addition, the “Serum IL-6 at 6 h, LPS + cpd” value in test [3] (IP injection 1 mg/kg at −1 h, LPS alone 215100) is recorded as 101000; in test [3] (IP injection 5 mg/kg at −1 h, LPS alone 215100), 108200; in test [3] (IP injection 15 mg/kg at −24, −12, −1 h, LPS alone 261900) it was 162800. The “cutaneous DTH reactions (change in footpad thickness)” value in test [4] is recorded as “statistically significant reduction”. The same compound returned an inhibition at 1 µM in test [5] (Homo sapiens, Fibroblast, compound 1 μM, S112 cells, IL-1 0.1 ng/ml, 6 hours) of 7.7%. Besides, the inhibition at 10 µM in test [5] (Homo sapiens, Fibroblast, compound 10 μM, S112 cells, IL-1 0.1 ng/ml, 6 hours) worked out at 21.4%. Also, the inhibition at 25 µM in test [5] (Homo sapiens, Fibroblast, compound 25 μM, S112 cells, IL-1 0.1 ng/ml, 6 hours) was determined as 34%. Besides, the inhibition at 50 µM in test [5] (Homo sapiens, Fibroblast, compound 50 μM, S112 cells, IL-1 0.1 ng/ml, 6 hours, read-out: % inhibition of IL-1-induced COX-2 expression) amounted to 48.4%. In test [5] (Homo sapiens, Fibroblast, compound 100 μM, S112 cells, IL-1 0.1 ng/ml, 6 hours), this compound registered an inhibition at 100 µM of 52.2%. For the same compound, in test [5] (Table 2 experiment, Compound 5 50 μM alone), the “% Inhibition of IL-1 induced COX-2 expression” value is given as 45.1%.

For the origin of these results see patent US7709514B2, “Therapeutic molecules and methods-1” (Cortical Pty Ltd, priority 2002, dated 2010).
